From US20240139166A1, “OPHTHALMIC COMPOSITIONS FOR PRESBYOPIA” (Sydnexis, Inc., priority 2021, published 2024) come the findings set out here.

A short description of this data set: Stability of pilocarpine in deuterated water (pilocarpic acid formation). It counts as physicochemical. As to the method:
The stability of pilocarpine was tested over a range of concentrations. Pilocarpic acid formation, a major degradant of pilocarpine, was measured. […] The stability of pilocarpine, as measured by the percent of pilocarpic acid formation, was measured at different pH/pD values, as depicted in FIG. 2.

For the compound `CC[C@@H]1C(=O)OC[C@@H]1Cc1cncn1C` [pilocarpine], for the setting “FIG. 1”, the “Stability (pilocarpic acid formation) in deuterated water versus non-deuterated water” value is given as “improved stability in deuterated water as compared to non-deuterated water”, the “Stability (pilocarpic acid formation) over a range of pilocarpine concentrations” value was “improved stability at higher concentrations of pilocarpine” and the “Stabilizing factor of deuterated water versus pilocarpine concentration” value is “stabilizing factor increases as pilocarpine concentration decreases”. For the same compound, where the note is “FIG. 2”, the “Rate of pilocarpic acid formation at different pH/pD values” was “linear log/log relationship was identified between the log(rate of pilocarpic acid formation) and pH”.
